{"source": "the supplement of paper PMC10307832", "experiment_in_all_cases": "relative viability (nuclei count vs DMSO), 5 days (fraction); higher = more cells survive", "key": {"A-427": {"tested_on": "A-427", "summary_of_the_method": "(§1)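 Values are medians from duplicate plates. Each reflects relative viability, defined as the nuclei count of treated wells over that of vehicle wells. Lung cancer cell lines in 1536-well plates were pin-tool dosed one day after seeding with one drug alone or with a fixed anchor-drug dose plus five library-drug doses (not always all listed) in √10 steps, then fixed, stained and imaged at 4× after 5 days.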"}, "COR-L 105": {"tested_on": "COR-L 105", "summary_of_the_method": "as §1"}, "ChaGo-K-1": {"tested_on": "ChaGo-K-1", "summary_of_the_method": "as §1"}, "EKVX": {"tested_on": "EKVX", "summary_of_the_method": "as §1"}, "EMC-BAC-2": {"tested_on": "EMC-BAC-2", "summary_of_the_method": "as §1"}, "EPLC-272H": {"tested_on": "EPLC-272H", "summary_of_the_method": "as §1"}, "HARA": {"tested_on": "HARA", "summary_of_the_method": "as §1"}, "HCC-44": {"tested_on": "HCC-44", "summary_of_the_method": "as §1"}, "LK-2": {"tested_on": "LK-2", "summary_of_the_method": "as §1"}, "LU99A": {"tested_on": "LU99A", "summary_of_the_method": "as §1"}, "NCI-H1650": {"tested_on": "NCI-H1650", "summary_of_the_method": "as §1"}, "NCI-H1734": {"tested_on": "NCI-H1734", "summary_of_the_method": "as §1"}, "NCI-H1755": {"tested_on": "NCI-H1755", "summary_of_the_method": "as §1"}, "NCI-H1792": {"tested_on": "NCI-H1792", "summary_of_the_method": "as §1"}, "NCI-H1993": {"tested_on": "NCI-H1993", "summary_of_the_method": "as §1"}, "NCI-H2405": {"tested_on": "NCI-H2405", "summary_of_the_method": "as §1"}, "NCI-H460": {"tested_on": "NCI-H460", "summary_of_the_method": "as §1"}, "NCI-H596": {"tested_on": "NCI-H596", "summary_of_the_method": "as §1"}, "NCI-H647": {"tested_on": "NCI-H647", "summary_of_the_method": "as §1"}, "RERF-LC-KJ": {"tested_on": "RERF-LC-KJ", "summary_of_the_method": "as §1"}}, "data": [{"smiles": "Cc1csc(=NC2CCCCC2)n1/N=C/c1ccc(O)c(O)c1O", "note": "[MIM1] + CC1(C)CCC(c2ccc(Cl)cc2)=C(CN2CCN(c3ccc(C(=O)NS(=O)(=O)c4ccc(N[C@H](CCN5CCOCC5)CSc5ccccc5)c(S(=O)(=O)C(F)(F)F)c4)cc3)CC2)C1 [Navitoclax] (partner 0.5 µM)", "values": [{"measurement": "relative viability", "setting": "A-427; first compound 0.2 µM", "value": 0.972}, {"measurement": "relative viability", "setting": "A-427; first compound 0.6325 µM", "value": 1.02}, {"measurement": "relative viability", "setting": "A-427; first compound 2 µM", "value": 0.981}, {"measurement": "relative viability", "setting": "A-427; first compound 6.325 µM", "value": 0.986}, {"measurement": "relative viability", "setting": "A-427; first compound 20 µM", "value": 0.555}, {"measurement": "relative viability", "setting": "COR-L 105; first compound 0.2 µM", "value": 0.78}, {"measurement": "relative viability", "setting": "COR-L 105; first compound 0.6325 µM", "value": 0.8}, {"measurement": "relative viability", "setting": "COR-L 105; first compound 2 µM", "value": 0.732}, {"measurement": "relative viability", "setting": "COR-L 105; first compound 6.325 µM", "value": 0.628}, {"measurement": "relative viability", "setting": "COR-L 105; first compound 20 µM", "value": 0.54}, {"measurement": "relative viability", "setting": "ChaGo-K-1; first compound 0.2 µM", "value": 1.14}, {"measurement": "relative viability", "setting": "ChaGo-K-1; first compound 0.6325 µM", "value": 0.741}, {"measurement": "relative viability", "setting": "ChaGo-K-1; first compound 2 µM", "value": 0.943}, {"measurement": "relative viability", "setting": "ChaGo-K-1; first compound 6.325 µM", "value": 0.717}, {"measurement": "relative viability", "setting": "ChaGo-K-1; first compound 20 µM", "value": 0.31}, {"measurement": "relative viability", "setting": "EKVX; first compound 0.2 µM", "value": 0.922}, {"measurement": "relative viability", "setting": "EKVX; first compound 0.6325 µM", "value": 1.07}, {"measurement": "relative viability", "setting": "EKVX; first compound 2 µM", "value": 0.965}, {"measurement": "relative viability", "setting": "EKVX; first compound 6.325 µM", "value": 0.761}, {"measurement": "relative viability", "setting": "EKVX; first compound 20 µM", "value": 0.293}, {"measurement": "relative viability", "setting": "EMC-BAC-2; first compound 0.2 µM", "value": 1.11}, {"measurement": "relative viability", "setting": "EMC-BAC-2; first compound 0.6325 µM", "value": 1.13}, {"measurement": "relative viability", "setting": "EMC-BAC-2; first compound 2 µM", "value": 1.27}, {"measurement": "relative viability", "setting": "EMC-BAC-2; first compound 6.325 µM", "value": 1.05}, {"measurement": "relative viability", "setting": "EMC-BAC-2; first compound 20 µM", "value": 0.274}, {"measurement": "relative viability", "setting": "EPLC-272H; first compound 0.2 µM", "value": 1.11}, {"measurement": "relative viability", "setting": "EPLC-272H; first compound 0.6325 µM", "value": 1.04}, {"measurement": "relative viability", "setting": "EPLC-272H; first compound 2 µM", "value": 1.2}, {"measurement": "relative viability", "setting": "EPLC-272H; first compound 6.325 µM", "value": 1}, {"measurement": "relative viability", "setting": "EPLC-272H; first compound 20 µM", "value": 0.199}, {"measurement": "relative viability", "setting": "HARA; first compound 0.2 µM", "value": 1.13}, {"measurement": "relative viability", "setting": "HARA; first compound 0.6325 µM", "value": 1.15}, {"measurement": "relative viability", "setting": "HARA; first compound 2 µM", "value": 1.19}, {"measurement": "relative viability", "setting": "HARA; first compound 6.325 µM", "value": 1.13}, {"measurement": "relative viability", "setting": "HARA; first compound 20 µM", "value": 0.23}, {"measurement": "relative viability", "setting": "HCC-44; first compound 0.2 µM", "value": 0.93}, {"measurement": "relative viability", "setting": "HCC-44; first compound 0.6325 µM", "value": 1.01}, {"measurement": "relative viability", "setting": "HCC-44; first compound 2 µM", "value": 0.74}, {"measurement": "relative viability", "setting": "HCC-44; first compound 6.325 µM", "value": 0.612}, {"measurement": "relative viability", "setting": "HCC-44; first compound 20 µM", "value": 0.277}, {"measurement": "relative viability", "setting": "LK-2; first compound 0.2 µM", "value": 0.924}, {"measurement": "relative viability", "setting": "LK-2; first compound 0.6325 µM", "value": 0.847}, {"measurement": "relative viability", "setting": "LK-2; first compound 2 µM", "value": 0.657}, {"measurement": "relative viability", "setting": "LK-2; first compound 6.325 µM", "value": 1.09}, {"measurement": "relative viability", "setting": "LK-2; first compound 20 µM", "value": 0.209}, {"measurement": "relative viability", "setting": "LU99A; first compound 0.2 µM", "value": 0.931}, {"measurement": "relative viability", "setting": "LU99A; first compound 0.6325 µM", "value": 0.817}, {"measurement": "relative viability", "setting": "LU99A; first compound 2 µM", "value": 0.781}, {"measurement": "relative viability", "setting": "LU99A; first compound 6.325 µM", "value": 0.836}, {"measurement": "relative viability", "setting": "LU99A; first compound 20 µM", "value": 0.18}, {"measurement": "relative viability", "setting": "NCI-H1650; first compound 0.2 µM", "value": 1.13}, {"measurement": "relative viability", "setting": "NCI-H1650; first compound 0.6325 µM", "value": 1.18}, {"measurement": "relative viability", "setting": "NCI-H1650; first compound 2 µM", "value": 0.693}, {"measurement": "relative viability", "setting": "NCI-H1650; first compound 6.325 µM", "value": 0.452}, {"measurement": "relative viability", "setting": "NCI-H1650; first compound 20 µM", "value": 0.202}, {"measurement": "relative viability", "setting": "NCI-H1734; first compound 0.2 µM", "value": 0.807}, {"measurement": "relative viability", "setting": "NCI-H1734; first compound 0.6325 µM", "value": 0.908}, {"measurement": "relative viability", "setting": "NCI-H1734; first compound 2 µM", "value": 0.783}, {"measurement": "relative viability", "setting": "NCI-H1734; first compound 6.325 µM", "value": 0.467}, {"measurement": "relative viability", "setting": "NCI-H1734; first compound 20 µM", "value": 0.202}, {"measurement": "relative viability", "setting": "NCI-H1755; first compound 0.2 µM", "value": 1.01}, {"measurement": "relative viability", "setting": "NCI-H1755; first compound 0.6325 µM", "value": 0.995}, {"measurement": "relative viability", "setting": "NCI-H1755; first compound 2 µM", "value": 1.03}, {"measurement": "relative viability", "setting": "NCI-H1755; first compound 6.325 µM", "value": 0.703}, {"measurement": "relative viability", "setting": "NCI-H1755; first compound 20 µM", "value": 0.557}, {"measurement": "relative viability", "setting": "NCI-H1792; first compound 0.2 µM", "value": 0.59}, {"measurement": "relative viability", "setting": "NCI-H1792; first compound 0.6325 µM", "value": 0.484}, {"measurement": "relative viability", "setting": "NCI-H1792; first compound 2 µM", "value": 0.559}, {"measurement": "relative viability", "setting": "NCI-H1792; first compound 6.325 µM", "value": 0.501}, {"measurement": "relative viability", "setting": "NCI-H1792; first compound 20 µM", "value": 0.245}, {"measurement": "relative viability", "setting": "NCI-H1993; first compound 0.2 µM", "value": 0.911}, {"measurement": "relative viability", "setting": "NCI-H1993; first compound 0.6325 µM", "value": 0.951}, {"measurement": "relative viability", "setting": "NCI-H1993; first compound 2 µM", "value": 0.854}, {"measurement": "relative viability", "setting": "NCI-H1993; first compound 6.325 µM", "value": 0.822}, {"measurement": "relative viability", "setting": "NCI-H1993; first compound 20 µM", "value": 0.425}, {"measurement": "relative viability", "setting": "NCI-H2405; first compound 0.2 µM", "value": 0.946}, {"measurement": "relative viability", "setting": "NCI-H2405; first compound 0.6325 µM", "value": 0.999}, {"measurement": "relative viability", "setting": "NCI-H2405; first compound 2 µM", "value": 0.884}, {"measurement": "relative viability", "setting": "NCI-H2405; first compound 6.325 µM", "value": 0.798}, {"measurement": "relative viability", "setting": "NCI-H2405; first compound 20 µM", "value": 0.35}, {"measurement": "relative viability", "setting": "NCI-H460; first compound 0.2 µM", "value": 1.16}, {"measurement": "relative viability", "setting": "NCI-H460; first compound 0.6325 µM", "value": 1.14}, {"measurement": "relative viability", "setting": "NCI-H460; first compound 2 µM", "value": 0.772}, {"measurement": "relative viability", "setting": "NCI-H460; first compound 6.325 µM", "value": 0.416}, {"measurement": "relative viability", "setting": "NCI-H460; first compound 20 µM", "value": 0.0332}, {"measurement": "relative viability", "setting": "NCI-H596; first compound 0.2 µM", "value": 0.935}, {"measurement": "relative viability", "setting": "NCI-H596; first compound 0.6325 µM", "value": 0.921}, {"measurement": "relative viability", "setting": "NCI-H596; first compound 2 µM", "value": 0.895}, {"measurement": "relative viability", "setting": "NCI-H596; first compound 6.325 µM", "value": 0.806}, {"measurement": "relative viability", "setting": "NCI-H596; first compound 20 µM", "value": 0.7}, {"measurement": "relative viability", "setting": "NCI-H647; first compound 0.2 µM", "value": 1.2}, {"measurement": "relative viability", "setting": "NCI-H647; first compound 0.6325 µM", "value": 0.989}, {"measurement": "relative viability", "setting": "NCI-H647; first compound 2 µM", "value": 0.742}, {"measurement": "relative viability", "setting": "NCI-H647; first compound 6.325 µM", "value": 0.809}, {"measurement": "relative viability", "setting": "NCI-H647; first compound 20 µM", "value": 0.617}, {"measurement": "relative viability", "setting": "RERF-LC-KJ; first compound 0.2 µM", "value": 0.848}, {"measurement": "relative viability", "setting": "RERF-LC-KJ; first compound 0.6325 µM", "value": 0.725}, {"measurement": "relative viability", "setting": "RERF-LC-KJ; first compound 2 µM", "value": 0.534}, {"measurement": "relative viability", "setting": "RERF-LC-KJ; first compound 6.325 µM", "value": 0.568}, {"measurement": "relative viability", "setting": "RERF-LC-KJ; first compound 20 µM", "value": 0.245}]}]}
